Source: patent publication US12428428B2, “Tricyclic tetrahydroisoquinoline derivative, preparation method therefor and application thereof in medicine” (JIANGSU HENGRUI MEDICINE CO., LTD., priority 2020, dated 2025)

Tests used:
Assay type in all cases: cell-based
MCF-7 cells = test: Inhibition of proliferation of MCF-7 cells (ATP method, Cell Titer-Glo); settings: Homo sapiens, MCF7; MCF-7 cells, 72 h
Protocol: This experiment was intended to test the inhibitory effects of the compounds disclosed herein on the proliferation of MCF-7 Cells by using the ATP method, and to evaluate the in vitro activity of the compounds according to the IC50 values.
MCF-7 cells (TCHu74, National Collection of Authenticated Cell Cultures) were seeded into a 96-well plate with an MEM (hyclone, SH30024.01B) medium containing 10% FBS (Gibco, 10099-141), 1% sodium pyruvate (sigma, 58636) and 1% non-essential amino acid (sigma, M7145) at a density of 4,000 cells/well and cultured at 37° C. with 5% CO2. 20 mM stock solutions of the compounds are prepared, serially diluted with 100% DMSO to a final concentration of 1000×, and then diluted 20-fold with a medium containing 2% FBS. After the cells were cultured for 24 h, the medium was removed. 90 μL of the medium containing 2% FBS and 10 μL of a drug were added to each well, and 10 μL of DMSO was added to the control group. The mixtures were well mixed by gentle shaking. The blank group contained only 100 μL of the medium containing 2% FBS. The cells were cultured in an incubator at 37° C. with 5% CO2 for 72 h, and then 50 μL of mixed Cell Titer-Glo (Promega, G7571) was added to each well. The mixtures were well mixed by shaking and let stand at room temperature for 10 min, and the chemiluminescence signal values were determined.
(§1) The chemiluminescence signal value was plotted against the compound concentration (in log form) using Graphpad Prism, and the IC50 values of the compounds were obtained.

ERα = ERα (Homo sapiens (Human), UniProt P03372); test: Degradation of ERα in MCF-7 cells (ELISA); settings: for Dmax at 3 µM: MCF7, read-out: Emax degradation (%); for DC50: MCF-7 cells, 16 to 18 h, read-out: EC50 (nM), degradation of ERα
Protocol: ERα-positive breast cancer cell line MCF-7 cells were cultured in a DMEM/F12 medium (HyClone, SH30023.01) containing 10% fetal bovine serum (Corning, 35-010-CV). […] The following day the compounds were serially diluted with DMSO and further diluted with the phenol red-free DMEM/F12 medium containing 5% charcoal-stripped fetal bovine serum. 20 μL of a diluted compound was added to each well of the 48-well plate at final concentrations of 3000, 300, 30, 3, 0.3, 0.03 and 0.003 nM. The 48-well plate was placed in the incubator for 16 to 18 h. A 96-well plate was coated with the capture antibody from the human ERα/NR3A1 total protein assay kit (R&D, DYC5715-5). […] The plate was placed in an incubator at 26° C. overnight. On day 3, the antibody-coated 96-well plate was washed once with PBS, and 200 μL of PBS containing 1% BSA was added to each well. The plate was incubated in an incubator at 37° C. for 1.5 h to be blocked. The cell culture medium supernatant was discarded. The cells were washed once with PBS, and 60 μL of a cell lysis buffer was added to each well. […] The cells were lysed on ice for 15 min, and 300 μL of PBS containing 1 mM EDTA and 0.5% TritonX-100 was added to each well to dilute the urea to 1 M. The blocking buffer in the blocked 96-well plate was discarded, and 100 μL of diluted cell lysis buffer was added to each well. The plate was incubated in an incubator at 37° C. for 2 h and washed 5 times with PBS. A biotinylated assay antibody was diluted to 0.4 μg/mL with PBS containing 1% BSA, and then 100 μL of the assay antibody was added to each well. The plate was incubated in an incubator at 37° C. for 1 h. The plate was then washed five more times, and 100 μL of avidin-HRP diluted 200-fold with PBS containing 1% BSA was added to each well. The plate was incubated at 37° C. for 30 min. The plate was washed five more times, and 100 μL of TMB substrate was added to each well. The plate was incubated at room temperature until blue color appeared, and 100 μL of stop solution was added to each well. OD450 signal values were read using a PHERAstar multi-mode microplate reader. The IC50 values for the inhibitory activity of the compounds were calculated using Graphpad Prism software.

ER (estrogen receptor) = ER (estrogen receptor) (Homo sapiens (Human), UniProt P03372); test: Inhibition of binding of E to ER (MCF-7/ERE-luciferase reporter cells); settings: MCF-7/ERE-luciferase cells, 0.1 nM estradiol, 24 h
Protocol: The compounds of the present disclosure can inhibit the binding of E (estrogen) to ER (estrogen receptor), thereby blocking the binding of the complex of E and ER to ERE (estrogen response element), and consequently the expression of downstream luciferase proteins. The inhibitory effects of the compounds of the present disclosure on the binding of E to ER was tested by using the following method.
An ERE was cloned upstream of the luciferase gene, and MCF-7/ERE-luciferase monoclonal cells were selected by transfection of MCF-7 (TCHu74, National Collection of Authenticated Cell Cultures). The MCF-7/ERE-luciferase cells were seeded into a 96-well plate with an MEM (hyclone, SH30024.01B) medium containing 10% charcoal stripped FBS (Moregate, FBSF), 1% sodium pyruvate (sigma, S8636), 1% non-essential amino acids (sigma, M7145) and 500 μg/mL G418 at a density of 30,000 cells/well and cultured at 37° C. with 5% CO2. 20 mM stock solutions of the drugs are prepared, serially diluted 10-fold with 100% DMSO, and then diluted 20-fold with the medium. After the cells were cultured for 24 h, the medium was removed. 0.1 nM estradiol (sigma, E2758) and 10 μL of a medium-diluted drug were added to each well, and DMSO was added to the control group. The mixtures were well mixed by gentle shaking. The cells were cultured in an incubator at 37° C. with 5% CO2 for 24 h, and then the cell culture liquid was removed, followed by the addition of 50 μL of a luciferase substrate (Promega, E6110) to each well. The plate was let stand at room temperature in the dark for 10-15 min, and the chemiluminescence signal values were determined.
as §1, with “The inhibitory effects of the compounds of the present disclosure on the binding of E to ER were tested through the above experiment. The” for “The”

Sequence of ERα (P03372 whole entry): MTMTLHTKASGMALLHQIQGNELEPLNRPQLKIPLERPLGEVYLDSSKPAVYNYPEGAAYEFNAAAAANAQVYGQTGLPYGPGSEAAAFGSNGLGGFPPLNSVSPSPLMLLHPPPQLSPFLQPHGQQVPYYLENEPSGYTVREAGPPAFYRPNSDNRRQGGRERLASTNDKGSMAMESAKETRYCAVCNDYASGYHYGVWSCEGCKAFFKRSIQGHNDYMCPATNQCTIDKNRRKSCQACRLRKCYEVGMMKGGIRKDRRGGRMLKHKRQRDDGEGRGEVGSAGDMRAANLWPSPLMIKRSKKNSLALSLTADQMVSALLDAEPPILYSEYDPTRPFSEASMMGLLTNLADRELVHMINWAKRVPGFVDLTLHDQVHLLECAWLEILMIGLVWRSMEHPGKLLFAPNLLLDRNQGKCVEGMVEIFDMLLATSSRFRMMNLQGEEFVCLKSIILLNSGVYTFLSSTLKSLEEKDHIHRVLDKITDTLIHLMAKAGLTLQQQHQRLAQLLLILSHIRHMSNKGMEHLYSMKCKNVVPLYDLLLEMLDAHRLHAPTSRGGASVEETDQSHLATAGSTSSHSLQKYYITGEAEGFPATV
Sequence of ER (estrogen receptor) (P03372 whole entry): as above

Structure (SMILES): C[C@@H]1Cc2cc3c(cc2[C@@H](c2ccc(NC4CN(CCCF)C4)cn2)N1CC(F)(F)F)OCO3 [Example 17, N-(1-(3-fluoropropyl)azetidin-3-yl)-6-((5S,7R)-7-methyl-6-(2,2,2-trifluoroethyl)-5,6,7,8-tetrahydro-[1,3]dioxolo[4,5-g]isoquinolin-5-yl)pyridin-3-amine]
- IC50 (MCF-7 cells): 0.44 nM
- Dmax at 3 µM (ERα): 104%
- DC50 (ERα): 1.24 nM
- IC50 (ER (estrogen receptor)): 0.43 nM

Structure (SMILES): C[C@@H]1Cc2cc3c(cc2[C@@H](c2ccc(NC4CN(CCCF)C4)cc2)N1CC(F)(F)CO)OCO3 [Example 18, 2,2-Difluoro-3-((5R,7R)-5-(4-((1-(3-fluoropropyl)azetidin-3-yl)amino)phenyl)-7-methyl-7,8-dihydro-[1,3]dioxolo[4,5-g]isoquinolin-6(5H)-yl)propan-1-ol]
- IC50 (MCF-7 cells): 0.07 nM
- Dmax at 3 µM (ERα): 106%
- DC50 (ERα): 0.1 nM
- IC50 (ER (estrogen receptor)): 0.07 nM

Structure (SMILES): [2H]C1([2H])Oc2cc3c(cc2O1)[C@@H](c1ccc(N[C@H]2CCN(CCCF)C2)cc1)N(CC(F)(F)CO)[C@H](C)C3 [Example 19, 2,2-Difluoro-3-((5R,7R)-5-(4-(((S)-1-(3-fluoropropyl)pyrrolidin-3-yl)amino)phenyl)-7-methyl-7,8-dihydro-[1,3]dioxolo[4,5-g]isoquinolin-6(5H)-yl-2,2-d2)propan-1-ol]
- IC50 (MCF-7 cells): 0.07 nM
- Dmax at 3 µM (ERα): 100%
- DC50 (ERα): 0.13 nM
- IC50 (ER (estrogen receptor)): 0.07 nM
